Data: patent publication US10584115B2, “Substituted pyridine and pyrazine BMI-1 inhibitors” (PTC Therapeutics, Inc., priority 2013, dated 2020)
pEC50: −log10 of the molar value. Where two headings read alike, the source gives them in different places.

Key:
Bmi-1 protein = experiment: Sandwich ELISA Assay (Bmi-1 protein level in HT-1080 cells after compound treatment); assay type: cell-based
Method in brief: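 HT-1080 cells exposed to compounds for 40–48 h at 37 °C (0.5% DMSO final), then lysed. Bmi-1 in lysates measured by sandwich ELISA (mouse monoclonal capture, rabbit anti-Bmi-1 detection, HRP anti-rabbit, TMB), read at OD450 with OD570 reference against a recombinant Bmi-1 standard curve (0–8000 pg/mL).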

[1] = Table 1, Bmi-1 sandwich ELISA, read-out: ELISA EC50 value for Bmi-1 protein

Row | Compound | melting point [°C] | pEC50 (Bmi-1 protein; [1]) | pEC50 (Bmi-1 protein; read-out: ELISA EC50 value for Bmi-1 protein, Table 1, Bmi-1 sandwich ELISA)
1 | Cc1nc2c(F)cc(F)cn2c1-c1cc(C#N)cc(Nc2ccc(C(F)(F)F)cc2)n1 [compound 441, 2-(6,8-difluoro-2-methylimidazo[1,2-a]pyridin-3-yl)-6-{[4-(trifluoromethyl)phenyl]amino}pyridine-4-carbonitrile] | 243 to 245 | 8.00 to 9.00 | –
2 | Cc1nc2c(F)cc(F)cn2c1-c1cc(C#N)cc(Nc2ccc(OC(F)F)cc2)n1 [compound 442, 2-{[4-(difluoromethoxy)phenyl]amino}-6-(6,8-difluoro-2-methylimidazo[1,2-a]pyridin-3-yl)pyridine-4-carbonitrile] | 236 to 238 | 8.00 to 9.00 | –
3 | Cc1nc2c(F)cc(F)cn2c1-c1cc(C#N)cc(Nc2ccc(OC(F)(F)F)cc2)n1 [compound 443, 2-(6,8-difluoro-2-methylimidazo[1,2-a]pyridin-3-yl)-6-{[4-(trifluoromethoxy)phenyl]amino}pyridine-4-carbonitrile] | 213 to 216 | 7.00 to 8.00 | –
4 | Cc1nc2c(F)cc(F)cn2c1-c1cc(C#N)cc(Nc2ccc(OC(F)F)c(F)c2)n1 [compound 444, 2-{[4-(difluoromethoxy)-3-fluorophenyl]amino}-6-(6,8-difluoro-2-methylimidazo[1,2-a]pyridin-3-yl)pyridine-4-carbonitrile] | 238 to 241 | 7.00 to 8.00 | –
5 | Fc1cc(F)c2nc(C3CC3)n(-c3cncc(Nc4ccc(C(F)(F)F)cc4)n3)c2c1 [compound 461, 6-(2-cyclopropyl-4,6-difluoro-1H-benzimidazol-1-yl)-N-[4-(trifluoromethyl)phenyl]pyrazin-2-amine] | 247 to 249 | – | 7.00 to 8.00
6 | Fc1cc(F)c2nc(C3CC3)n(-c3cncc(Nc4ccc(OC(F)F)cc4)n3)c2c1 [compound 462, 6-(2-cyclopropyl-4,6-difluoro-1H-benzimidazol-1-yl)-N-[4-(difluoromethoxy)phenyl]pyrazin-2-amine] | 202 to 203 | 7.00 to 8.00 | –
7 | Fc1cc(F)c2nc(C3CC3)n(-c3cncc(Nc4ccc(OC(F)(F)F)cc4)n3)c2c1 [compound 463, 6-(2-cyclopropyl-4,6-difluoro-1H-benzimidazol-1-yl)-N-[4-(trifluoromethoxy)phenyl]pyrazin-2-amine] | 218 to 220 | 5.52 to 7.00 | –
8 | Fc1cc(F)c2nc(C3CC3)n(-c3cncc(Nc4ccc(C(F)(F)F)nc4)n3)c2c1 [compound 464, 6-(2-cyclopropyl-4,6-difluoro-1H-benzimidazol-1-yl)-N-[6-(trifluoromethyl)pyridin-3-yl]pyrazin-2-amine] | 267 to 270 | 7.00 to 8.00 | –
9 | N#Cc1cc(Nc2ccc(C(F)(F)F)cc2)nc(-c2c(C(F)F)nc3ccc(F)cn23)c1 [compound 466, 2-[2-(difluoromethyl)-6-fluoroimidazo[1,2-a]pyridin-3-yl]-6-{[4-(trifluoromethyl)phenyl]amino}pyridine-4-carbonitrile] | 249 to 251 | 7.00 to 8.00 | –
10 | N#Cc1cc(Nc2ccc(OC(F)F)cc2)nc(-c2c(C(F)F)nc3ccc(F)cn23)c1 [compound 467, 2-{[4-(difluoromethoxy)phenyl]amino}-6-[2-(difluoromethyl)-6-fluoroimidazo[1,2-a]pyridin-3-yl]pyridine-4-carbonitrile] | 215 to 217 | 8.00 to 9.00 | –
11 | Cc1cc(Nc2cc(C#N)cc(-c3c(C(F)F)nc4ccc(F)cn34)n2)cnc1OC(F)F [compound 468, 2-{[6-(difluoromethoxy)-5-methylpyridin-3-yl]amino}-6-[2-(difluoromethyl)-6-fluoroimidazo[1,2-a]pyridin-3-yl]pyridine-4-carbonitrile] | 239 to 241 | 7.00 to 8.00 | –
12 | N#Cc1cc(Nc2ccc(C(F)(F)F)nc2)nc(-c2c(C(F)F)nc3ccc(F)cn23)c1 [compound 469, 2-[2-(difluoromethyl)-6-fluoroimidazo[1,2-a]pyridin-3-yl]-6-{[6-(trifluoromethyl)pyridin-3-yl]amino}pyridine-4-carbonitrile] | 285 to 288 | 7.00 to 8.00 | –
13 | Cc1cc(Nc2cc(C#N)cc(-c3c(C)nc4ccc(F)cn34)n2)cnc1OC(F)F [compound 470, 2-{[6-(difluoromethoxy)-5-methylpyridin-3-yl]amino}-6-(6-fluoro-2-methylimidazo[1,2-a]pyridin-3-yl)pyridine-4-carbonitrile] | 219 to 222 | 5.52 to 7.00 | –
14 | Cc1cc(Nc2cc(C#N)cc(-c3c(C)nc4c(F)cc(F)cn34)n2)cnc1OC(F)F [compound 471, 2-{[6-(difluoromethoxy)-5-methylpyridin-3-yl]amino}-6-(6,8-difluoro-2-methylimidazo[1,2-a]pyridin-3-yl)pyridine-4-carbonitrile] | 236 to 238 | 5.52 to 7.00 | –
15 | Fc1ccc2nc(C(F)F)c(-c3cncc(Nc4ccc(C(F)(F)F)cc4)n3)n2c1 [compound 472, 6-[2-(difluoromethyl)-6-fluoroimidazo[1,2-a]pyridin-3-yl]-N-[4-(trifluoromethyl)phenyl]pyrazin-2-amine] | 180 to 182 | 8.00 to 9.00 | –
16 | Fc1ccc2nc(C(F)F)c(-c3cncc(Nc4ccc(OC(F)F)cc4)n3)n2c1 [compound 473, N-[4-(difluoromethoxy)phenyl]-6-[2-(difluoromethyl)-6-fluoroimidazo[1,2-a]pyridin-3-yl]pyrazin-2-amine] | 167 to 169 | > 9.00 | –
17 | N#Cc1cc(Nc2ccc(C(F)(F)F)cc2)nc(-n2c(C3CC3)nc3c(F)cc(F)cc32)c1 [compound 474, 2-(2-cyclopropyl-4,6-difluoro-1H-benzimidazol-1-yl)-6-{[4-(trifluoromethyl)phenyl]amino}pyridine-4-carbonitrile] | 233 to 235 | 7.00 to 8.00 | –
18 | N#Cc1cc(Nc2ccc(OC(F)F)cc2)nc(-n2c(C3CC3)nc3c(F)cc(F)cc32)c1 [compound 475, 2-(2-cyclopropyl-4,6-difluoro-1H-benzimidazol-1-yl)-6-{[4-(difluoromethoxy)phenyl]amino}pyridine-4-carbonitrile] | 168 to 170 | 7.00 to 8.00 | –
19 | N#Cc1cc(Nc2ccc(OC(F)F)nc2)nc(-n2c(C3CC3)nc3c(F)cc(F)cc32)c1 [compound 478, 2-(2-cyclopropyl-4,6-difluoro-1H-benzimidazol-1-yl)-6-{[6-(difluoromethoxy)pyridin-3-yl]amino}pyridine-4-carbonitrile] | 207 to 209 | 7.00 to 8.00 | –
20 | Fc1ccc2nc(C(F)F)c(-c3cncc(Nc4ccc(OC(F)F)nc4)n3)n2c1 [compound 479, N-[6-(difluoromethoxy)pyridin-3-yl]-6-[2-(difluoromethyl)-6-fluoroimidazo[1,2-a]pyridin-3-yl]pyrazin-2-amine] | 225 to 227 | 8.00 to 9.00 | –
21 | Cc1nc2ccc(F)cn2c1-c1cncc(Nc2ccc(OC(F)F)nc2)n1 [compound 480, N-[6-(difluoromethoxy)pyridin-3-yl]-6-(6-fluoro-2-methylimidazo[1,2-a]pyridin-3-yl)pyrazin-2-amine] | 204 to 207 | 5.52 to 7.00 | –
22 | FC(F)c1nc2ccccc2n1-c1cncc(Nc2ccc(C(F)(F)F)cc2)n1 [compound 481, 6-[2-(difluoromethyl)-1H-benzimidazol-1-yl]-N-[4-(trifluoromethyl)phenyl]pyrazin-2-amine] | 229 to 231 | 7.00 to 8.00 | –
23 | FC(F)Oc1ccc(Nc2cncc(-n3c(C(F)F)nc4ccccc43)n2)cc1 [compound 482, N-[4-(difluoromethoxy)phenyl]-6-[2-(difluoromethyl)-1H-benzimidazol-1-yl]pyrazin-2-amine] | 213 to 216 | 7.00 to 8.00 | –
24 | Fc1cc(Nc2cncc(-n3c(C(F)F)nc4ccccc43)n2)ccc1OC(F)F [compound 483, N-[4-(difluoromethoxy)-3-fluorophenyl]-6-[2-(difluoromethyl)-1H-benzimidazol-1-yl]pyrazin-2-amine] | 220 to 222 | 7.00 to 8.00 | –
25 | N#Cc1cc(Nc2ccc(C(F)(F)F)cc2)nc(-n2c(C(F)F)nc3ccccc32)c1 [compound 484, 2-[2-(difluoromethyl)-1H-benzimidazol-1-yl]-6-{[4-(trifluoromethyl)phenyl]amino}pyridine-4-carbonitrile] | 225 to 227 | 7.00 to 8.00 | –
26 | Fc1ccc2nc(C3CCC3)n(-c3cncc(Nc4ccc(C(F)(F)F)cc4)n3)c2c1 [compound 485, 6-(2-cyclobutyl-6-fluoro-1H-benzimidazol-1-yl)-N-[4-(trifluoromethyl)phenyl]pyrazin-2-amine] | 289 to 291 | 5.52 to 7.00 | –
27 | Fc1ccc2nc(C(F)F)n(-c3cncc(Nc4ccc(C(F)(F)F)cc4)n3)c2c1 [compound 486, 6-[2-(difluoromethyl)-6-fluoro-1H-benzimidazol-1-yl]-N-[4-(trifluoromethyl)phenyl]pyrazin-2-amine] | 197 to 199 | 7.00 to 8.00 | –
28 | Cc1cn2c(-c3cc(C#N)cc(Nc4ccc(C(F)(F)F)cc4)n3)c(C)nc2c(C)n1 [compound 487, 2-{[4-(trifluoromethyl)phenyl]amino}-6-(2,6,8-trimethylimidazo[1,2-a]pyrazin-3-yl)pyridine-4-carbonitrile] | 237 to 238 | 7.00 to 8.00 | –
29 | Cc1cn2c(-c3cncc(Nc4ccc(C(F)(F)F)cc4)n3)c(C)nc2c(C)n1 [compound 488, N-[4-(trifluoromethyl)phenyl]-6-(2,6,8-trimethylimidazo-[1,2-a]pyrazin-3-yl)pyrazin2-amine] | 102 to 105 | 7.00 to 8.00 | –
30 | Cc1cn2c(-c3cncc(Nc4ccc(OC(F)F)cc4)n3)c(C)nc2c(C)n1 [compound 489, N-[4-(difluoromethoxy)phenyl]-6-(2,6,8-trimethylimidazo[1,2-a]pyrazin-3-yl)pyrazin-2-amine] | 140 to 141 | 8.00 to 9.00 | –
